From patent US10266548B2, “Substituted benzylindazoles for use as Bub1 kinase inhibitors in the treatment of hyperproliferative diseases” (Bayer Intellectual Property GmbH, priority 2011, dated 2019)
Where two headings read alike, the source gives them in different places.

Tests used:
NCI-H460 cells = assay: Proliferation assay (H460 cell line); format: cell-based; details: Homo sapiens, NCI-H460, 96 h, read-out: Biological Assay 2: Proliferation assay (H460 cell line) median IC50
Protocol: (§1) Cultivated tumor cells (cells were ordered from ATCC, except HeLa-MaTu and HeLa-MaTu-ADR, which were ordered from EPO-GmbH, Berlin) were plated at a density of 1000 to 5000 cells/well, depending on the growth rate of the respective cell line, in a 96-well multititer plate in 200 μL of their respective growth medium supplemented 10% fetal calf serum. After 24 hours, the cells of one plate (zero-point plate) were stained with crystal violet (see below), while the medium of the other plates was replaced by fresh culture medium (200 μl), to which the test substances were added in various concentrations (0 μM, as well as in the range of 0.001-10 μM; the final concentration of the solvent dimethyl sulfoxide was 0.5%). The cells were incubated for 4 days in the presence of test substances. Cell proliferation was determined by staining the cells with crystal violet: the cells were fixed by adding 20 μl/measuring point of an 11% glutaric aldehyde solution for 15 minutes at room temperature. After three washing cycles of the fixed cells with water, the plates were dried at room temperature. The cells were stained by adding 100 μl/measuring point of a 0.1% crystal violet solution (pH 3.0). After three washing cycles of the stained cells with water, the plates were dried at room temperature. The dye was dissolved by adding 100 μl/measuring point of a 10% acetic acid solution. […] The change of cell number, in percent, was calculated by normalization of the measured values to the aborbtion values of the zero-point plate (=0%) and the absorbtion of the untreated (0 μm) cells (=100%). The IC50 values were determined by means of a 4 parameter fit using the company's own software.

Caco2 cells = assay: Proliferation assay (Caco2 cell line); format: cell-based; details: Homo sapiens, Caco-2, 96 h, read-out: Biological Assay 2: Proliferation assay (Caco2 cell line) median IC50
Protocol: as §1

HeLa cells = assay: Proliferation assay (HeLa cell line); format: cell-based; details: Homo sapiens, 96 h, read-out: Biological Assay 2: Proliferation assay (HeLa cell line) median IC50
[1] = target: catalytic domain of human Bub1 (amino acids 704-1085) (Homo sapiens (Human), UniProt O43683); assay: Bub1 kinase assay (TR-FRET); format: biochemical; details: 10 μM ATP, 1 μM peptide substrate; read-out: Biological Assay 1: Bub1 kinase assay median IC50
Outline: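 Phosphoserine product detected by TR-FRET (Eu-labeled anti-mouse IgG/anti-phosphoserine antibody to streptavidin-XL665) after 1 h at 22 °C. IC50 from 4-parameter logistic fit.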

HeLa-MaTu-ADR cells = assay: Proliferation assay (HeLa-MaTu-ADR cell line); format: cell-based; details: 96 h, read-out: Biological Assay 2: Proliferation assay (HeLa-MaTu-ADR cell line) median IC50
Protocol: as §1

B16F10 cells = assay: Proliferation assay (B16F10 cell line); format: cell-based; details: Mus musculus, B16-F10, 96 h, read-out: Biological Assay 2: Proliferation assay (B16F10 cell line) median IC50
Protocol: as §1

DU145 cells = assay: Proliferation assay (DU145 cell line); format: cell-based; details: Homo sapiens, DU-145, 96 h, read-out: Biological Assay 2: Proliferation assay (DU145 cell line) median IC50
Protocol: as §1

[2] = HeLa-MaTu-ADR, 4 days, crystal violet

Sequence of catalytic domain of human Bub1 (amino acids 704-1085) (O43683 704-1085): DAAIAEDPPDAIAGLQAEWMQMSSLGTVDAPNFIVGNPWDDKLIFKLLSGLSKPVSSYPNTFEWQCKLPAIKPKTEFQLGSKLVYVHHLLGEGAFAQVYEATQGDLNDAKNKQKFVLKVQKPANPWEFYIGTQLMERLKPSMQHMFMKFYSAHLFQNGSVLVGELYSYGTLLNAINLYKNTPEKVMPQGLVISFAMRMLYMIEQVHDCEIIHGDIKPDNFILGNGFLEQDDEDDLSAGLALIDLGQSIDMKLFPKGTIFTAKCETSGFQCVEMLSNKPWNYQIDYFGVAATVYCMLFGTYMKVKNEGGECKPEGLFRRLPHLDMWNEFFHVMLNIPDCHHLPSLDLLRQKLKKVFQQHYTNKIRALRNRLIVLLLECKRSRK

IC50 (NCI-H460 cells; H460, 4 days, crystal violet) [nM]	IC50 (Caco2 cells; Caco2, 4 days, crystal violet) [nM]	IC50 (HeLa cells; 4 days, crystal violet) [nM]	IC50 (HeLa-MaTu-ADR cells; [2]) [nM]	IC50 (B16F10 cells; B16F10, 4 days, crystal violet) [nM]	IC50 (DU145 cells; DU145, 4 days, crystal violet) [nM]	Compound	IC50 [1] [nM]	IC50 (NCI-H460 cells) [nM]	IC50 (Caco2 cells) [nM]	IC50 (HeLa-MaTu-ADR cells) [nM]	IC50 (B16F10 cells) [nM]	IC50 (DU145 cells) [nM]	IC50 (HeLa cells) [nM]
4200	1400	3500	1300	1200	3300	COc1cnc(-c2nn(Cc3c(F)ccc(OC)c3F)c3ccccc23)nc1Nc1ccncc1 [Example 2-4-1, 2-[1-(2,6-difluoro-3-methoxybenzyl)-1H-indazol-3-yl]-5-methoxy-N-(pyridin-4-yl)pyrimidin-4-amine]	4.5						
9000	1900	3900	100	1500	2500	COc1cnc(-c2nn(Cc3cc4c(cc3Br)OCO4)c3ccccc23)nc1Nc1ccncc1 [Example 2-4-3, 2-{1-[(6-bromo-1,3-benzodioxol-5-yl)methyl]-1H-indazol-3-yl}-5-methoxy-N-(pyridin-4-yl)pyrimidin-4-amine]	14						
						COc1cnc(-c2nn(Cc3c(Cl)cccc3Cl)c3ccccc23)nc1Nc1ccncc1 [Example 2-9-1, 2-[1-(2,6-dichlorobenzyl)-1H-indazol-3-yl]-5-methoxy-N-(pyridin-4-yl)pyrimidin-4-amine]	6.7	10000	10000	8100	9500	10000	
3000	3000	290	3000	2900	3000	COC(=O)c1ccc(Cn2nc(-c3ncc(OC)c(Nc4ccncc4)n3)c3ccccc32)c(Cl)c1 [Example 2-11-1, methyl 3-chloro-4-({3-[5-methoxy-4-(pyridin-4-ylamino)pyrimidin-2-yl]-1H-indazol-1-yl}methyl)benzoate]	7.1						
						COC(=O)c1ccc(CN(c2ccncc2)c2nc(-c3nn(Cc4ccc(C(=O)OC)cc4Cl)c4ccccc34)ncc2OC)c(Cl)c1 [Example 2-11-2, methyl 3-chloro-4-{[(2-{1-[2-chloro-4-(methoxycar-bonyl)benzyl]-1H-indazol-3-yl}-5-methoxypyrimidin-4-yl)(pyridin-4-yl)amino]methyl} benzoate]	540	2300	8000	10000	2100	3600	3400
						COc1cnc(-c2nn(Cc3c(F)cc(Br)cc3F)c3ccccc23)nc1Nc1ccncc1 [Example 2-12-1, 2-[1-(4-bromo-2,6-difluorobenzyl)-1H-indazol-3-yl]-5-methoxy-N-(pyridin-4-yl)pyrimidin-4-amine]	7.3	1500	1400	1300	1400	1600	1600
						COc1cnc(-c2nn(Cc3c(F)c(F)c(OC)c(F)c3F)c3ccccc23)nc1Nc1ccncc1 [Example 2-24-1, 5-methoxy-N-(pyridin-4-yl)-2-[1-(2,3,5,6-tetrafluoro-4-methoxybenzyl)-1H-indazol-3-yl]pyrimidin-4-amine]	14	2000	1500	1300	1400	1300	3100
10000	10000	9800	10000	10000	10000	CCCc1ccc(Cn2nc(-c3ncc(OC)c(Nc4ccncc4)n3)c3ccccc32)cc1 [Example 2-25-1, 5-methoxy-2-[1-(4-propylbenzyl)-1H-indazol-3-yl]-N-(pyridin-4-yl)pyrimidin-4-amine]	15						
						COc1cnc(-c2nn(Cc3c(Cl)cc(OC(F)(F)F)cc3Cl)c3ccccc23)nc1Nc1ccncc1 [Example 2-26-1, 2-{1-[2,6-dichloro-4-(trifluoromethoxy)benzyl]-1H-indazol-3-yl}-5-methoxy-N-(pyridin-4-yl)pyrimidin-4-amine]	16	1000	380	390	420	530	560
8500	2400	4200	2300	1300	5300	COc1cnc(-c2nn(Cc3ccc4c(C)cc(=O)oc4c3)c3ccccc23)nc1Nc1ccncc1 [Example 2-32-1, 7-({3-[5-methoxy-4-(pyridin-4-ylamino)pyrimidin-2-yl]-1H-indazol-1-yl}methyl)-4-methyl-2H-chromen-2-one]	29						
6600	3400	1600	1200	1200	2600	COc1cnc(-c2nn(Cc3c(Cl)ccc(C(F)(F)F)c3Cl)c3ccccc23)nc1Nc1ccncc1 [Example 2-34-1, 2-{1-(2,6-dichloro-3-(trifluoromethyl)benzyl]-1H-indazol-3-yl}-5-methoxy-N-(pyridin-4-yl)pyrimidin-4-amine]	38						
						COc1cnc(-c2nn(Cc3c(F)cc(C#N)cc3F)c3ccccc23)nc1Nc1ccncc1 [Example 2-46-1, 3,5-difluoro-4-({3-[5-methoxy-4-(pyridin-4-ylamino)pyrimidin-2-yl]-1H-indazol-1-yl}methyl)benzonitrile]	16	880	900	380	710	850	1400
						OCC1(COc2cnc(-c3nn(Cc4ccccc4F)c4ccccc34)nc2Nc2ccncc2)COC1 [Example 4-2-1, {3[({2-[1-(2-fluorobenzyl)-1H-indazol-3-yl]-4-(pyridin-4-ylamino)pyrimidin-5-yl}oxy)methyl]oxetan-3-yl}methanol]	3.3	6500	9900	5800	3700	10000	8700
3500	900	3400	1200	500	4500	CN(C)CCOc1cnc(-c2nn(Cc3ccccc3F)c3ccccc23)nc1Nc1ccncc1 [Example 4-4, 5-[2-(dimethyl-amino)ethoxy]-2-[1-(2-fluorobenzyl)-1H-indazol-3-yl] N-(pyridin-4-yl)pyrimidin-4-amine]	14						
						CCOc1cc(F)c(Cn2nc(-c3ncc(OCCN(C)C)c(Nc4ccncc4)n3)c3ccccc32)c(F)c1 [Example 4-8, 5-[2-(dimethyl-amino)ethoxy]-2-[1-(4-ethoxy-2,6-difluorobenzyl)-1H-indazol-3-yl]-N-(pyridin-4~ yl)pyrimidin-4-amine]	8	1100	760	360	570	1200	1300
						CCOc1cc(F)c(Cn2nc(-c3ncc(OCC(O)CN4CCCCC4)c(Nc4ccncc4)n3)c3ccccc32)c(F)c1 (stereo not drawn) [Example 4-9, 1-({2-[1-(4-ethoxy-2,6-difluorobenzyl)-1H-indazol-3-yl]-4-(pyridin-4-ylamino)pyrimidin-5-yl}oxy)-3-(piperidin-1-yl)propan-2-ol]	5.4	1300	780	860	530	1300	1700
